Consider 17 compounds from patent publication US20250264459A1, “IN VITRO ASSAY TO PREDICT CARDIOTOXICITY” (Stemina Biomarker Discovery, Inc., priority 2018, published 2025).

For data set [1] the following is noted: cited from earlier work.
The test system of data set [2] is human iPSC-CM (iCell Cardiomyocytes2). Nature of the data set: Spent-media metabolomics (LC-MS) cardiotoxicity prediction models, blinded test set. Particulars: for Global Tox Model Prediction: cardiotoxic vs non-cardiotoxic, at the Exposure (μM) listed per compound in Table 3, model from confirmed metabolites and viability; for Functional Model Prediction: functional vs general/structural cardiotoxicants, at the Exposure (μM) listed per compound in Table 3.

The subject of data set [3] is human iPSC-CM (iCell Cardiomyocytes). Nature of the data set: Dose-response cell viability (CellTiter-Fluor) in iPSC-derived cardiomyocytes, maximum acceptable viability exposure. The format is cell-based. As to the method: Metabolomic data was acquired to identify non-cytotoxic exposure levels and identify biomarkers of cardiotoxicity from a dose-response experiment using spent medium of iPSC-CM treated with 53 of the compounds in the training set. Briefly, human iPSC-CM (iCell® Cardiomyocytes, cat #R1007, Cellular Dynamics International) were exposed to eight concentrations of each training set compound. Spent media was collected for LC-MS analysis and cell viability was assessed with the CellTiter-Fluor Cell Viability Assay (Promega). Spent media samples were prepared and analyzed using the methods developed in Specific Aim 1. The spent media samples from iPSC-CM treated with 10 representative cardiotoxic and non-cardiotoxic compounds were analyzed with all four LC-MS methods to rank biological significant secretome features by predictive capacity. […]
The goal of the concentration-response phase of biomarker identification was to identify non-cytotoxic exposure levels that change iPSC-CM metabolism. The method included modeling feature response, calculating maximum acceptable viability (MAVE), determining response at Cmax, and MAVE, reviewing the top 4 responding features, and selecting the highest tested exposure with 90% viability.

Like-named read-outs stand apart in the source and are kept apart here.

For `CC(C)NCC(O)c1ccc(NS(C)(=O)=O)cc1` (stereo not drawn) [Sotalol], in data set [1] (therapeutic total Cmax), the “Cmax Total” value was 15000 nM. In data set [2], the “Global Tox Model Prediction” value is “+” and the “Functional Model Prediction” value was “+”.
For `CCCc1nn(C)c2c(=O)[nH]c(-c3cc(S(=O)(=O)N4CCN(C)CC4)ccc3OCC)nc12` [Sildenafil], in data set [2], the “Global Tox Model Prediction” value is “−” and the “Functional Model Prediction” value is reported as “−”.
As to `CS(=O)(=O)OCCCCOS(C)(=O)=O` [Busulfan], the “Cmax Total” value in data set [1] (therapeutic total Cmax) was 50000 nM. For the same compound, in data set [2], the “Global Tox Model Prediction” value is “+” and the “Functional Model Prediction” value is reported as “−”.
Turning to `Cc1cn(-c2cc(NC(=O)c3ccc(C)c(Nc4nccc(-c5cccnc5)n4)c3)cc(C(F)(F)F)c2)cn1` [Nilotinib], the “Cmax Total” value in data set [1] (therapeutic total Cmax) was 3000 nM. Besides, in data set [2], the “Global Tox Model Prediction” value is listed as “+” and the “Functional Model Prediction” value is “−”.
For `CC(=O)Oc1ccccc1C(=O)O` [Acetylsalicylic Acid], the “Cmax Total” value in data set [1] (therapeutic total Cmax) is 10000 nM. Further, in data set [2], the “Global Tox Model Prediction” value is “−” and the “Functional Model Prediction” value is reported as “−”.
On to `CCOC(=O)N1CCC(=C2c3ccc(Cl)cc3CCc3cccnc32)CC1` [Loratadine], for which the “Functional Model Prediction” value in data set [2] is reported as “−”.
Consider `OC[C@H]1O[C@@](CO)(O[C@H]2O[C@H](CO)[C@@H](O)[C@H](O)[C@H]2O)[C@@H](O)[C@@H]1O` [Sucrose], for which the “Cmax Total” value in data set [1] (therapeutic total Cmax) is 1800 nM. For the same compound, in data set [2], the “Global Tox Model Prediction” value is “−” and the “Functional Model Prediction” value is “−”.
On to `OC[C@@H](O)[C@H](O)[C@@H](O)CO` [Xylitol], for which the “Cmax Total” value in data set [1] (therapeutic total Cmax) is 500 nM. In data set [2], the “Global Tox Model Prediction” value is recorded as “−” and the “Functional Model Prediction” value is “−”.
For the compound `O=C(O)COCCN1CCN(C(c2ccccc2)c2ccc(Cl)cc2)CC1` (stereo not drawn) [Cetirizine], in data set [2], the “Functional Model Prediction” value is “−”.
For `CN(CCOc1ccc(CC2SC(=O)NC2=O)cc1)c1ccccn1` (stereo not drawn) [Rosiglitazone], the “Functional Model Prediction” value in data set [2] is given as “−”.
In the case of `O=C1O[C@H]([C@@H](O)CO)C(O)=C1O` [Ascorbic Acid], the “MAVE (Maximum Acceptable Viability Exposure)” value (shortened to “MAVE”) in data set [3] (human) was found to be 100 µM. Besides, the “Cmax Total” value in data set [1] (therapeutic total Cmax) is 36000 nM.
Regarding `CC(C)COCC(CN(Cc1ccccc1)c1ccccc1)N1CCCC1` (stereo not drawn) [Bepridil], the “Cmax Total” value in data set [1] (therapeutic total Cmax) was 3300 nM. Also, in data set [2], the “Global Tox Model Prediction” value was “+” and the “Functional Model Prediction” value is on record as “+”.
Phenylphenol: in data set [3] (highest exposure tested with ≥90% viability, iPSC-CM, eight concentrations), the “MAVE” value is 100 µM. In addition, the “Cmax Total” value in data set [1] (therapeutic total Cmax) was 90 nM.
Consider `COc1cc(N)c(Cl)cc1C(=O)NC1CCN(CCCOc2ccc(F)cc2)CC1OC` (stereo not drawn) [Cisapride], for which the “MAVE” value in data set [3] (human) amounted to 100 µM. In data set [1] (therapeutic total Cmax), the “Cmax Total” value was 180 nM.
Consider `CC[C@H](OC(C)=O)C(C[C@H](C)N(C)C)(c1ccccc1)c1ccccc1` [Levomethadyl Acetate], for which the “Cmax Total” value in data set [1] (in vivo) was 600 nM. For the same compound, in data set [2], the “Global Tox Model Prediction” value is on record as “+” and the “Functional Model Prediction” value is “+”.
Turning to `O=C1NCCN1CCN1CCC(c2cn(-c3ccc(F)cc3)c3ccc(Cl)cc23)CC1` [Sertindole], the “MAVE” value in data set [3] (human) came out at 0.3 µM. In addition, in data set [1] (therapeutic total Cmax), the “Cmax Total” value is 320 nM.
As to `CN(C)CCN(Cc1cccs1)c1ccccn1` [Methapyrilene], the “MAVE” value in data set [3] (human) came to 100 µM. Besides, the “Cmax Total” value in data set [1] (therapeutic total Cmax) is 15300 nM.
